In patent EP0928340B1, “INVASION-INHIBITORS FOR USE IN WOUND HEALING AND CANCER” (THE REGENTS OF THE UNIVERSITY OF MICHIGAN, priority 1996, dated 2009):
Like-named read-outs stand apart in the source and are kept apart here.

How the values were obtained:
[1] = system: DU-145 prostate cancer cells; experiment: SU-ECM in vitro invasion assay, human prostate cancer cells; assay type: cell-based; conditions: for IC100: Homo sapiens, DU-145, read-out: concentration that completely (fully) inhibits invasion
Experimental: Adult Strongylocentrotus purpuratus sea urchins were obtained from Pacific BioMarine, and their embryos were cultured to the early pluteus stage in artificial sea water at 15°C. SU-ECM were prepared from them by treatment with nonionic detergent and strerilized by dilution in the appropriate media.
[…] When appropriate, purified bovine plasma fibronectin (Sigma), purified 120 kDa chymotryptic fragment (Gibco BRL). PHSRN or PHSCN peptides (synthesized at the Biomedical Research Core Facilities of the University of Michigan), or GRGDSP or GRGESP peptides (Gibco BRL) were added to the resuspended cells prior to placement of the cells on SU-ECM. In each well of a plate used for an invasion assay, SU-ECM were placed in 0.5 ml of the appropriate medium, and 0.5ml of the resuspended cells dropped on their exterior surfaces. Invasion assays were incubated 1 to 16 hours prior to assay. If some circumstances, invasion assays were fixed in phosphate-buffered saline (PBS) with 2% formaldehyde for 5 minutes at room temperature, then rinsed into PBS.
Invasion assays were coded and scored blindly by microscopic examination under phase contrast at 200- and 400-fold magnification. Each cell contacting an SU-ECM was scored for its position relative to the exterior or interior surfaces. A cell was judged to have invaded if it was located on an interior surface below the focal plane passing through the upper surface of the SU-ECM, but above the focal plane passing through its lower surface. The minimum viability of the cells in each assay was always ascertained at the time of assay by determining the fraction of spread, adherent cells on the bottom of each well scored.
An invasion frequency is defined as the fraction of cells in contact with basement membranes which were located in their interiors at the time of assay. Thus, an invasion frequency of 1 denotes invasion by 100% of the cells in contact with basement membranes. Invasion frequencies were determined multiple times for each cell type assayed. For each type of cell assayed the mean and standard deviation of the invasion frequencies were calculated.
The method of Example 4 is employed, with the addition of varying concentrations of the PHSCN peptide.
Thus, the procedure in Example 4 provides a method for determining the inhibitory potential of the PHSCN peptide by comparing the number of cell invasions in the presence of the PHSCN peptide, with the number of cell invasions in the absence of the PHSCN peptide.
In this example, in vitro invasion of cancer cells into substrates is inhibited with peptides that have been chemically modified with protecting groups and peptides having protecting groups as well as the modification wherein an L-amino acid has been replaced with the D-isomer. PHSCN peptide, blocked PHSCN peptide, and blocked PHSCN peptide with a D-cysteine instead of the L-isomer, were tested (Figure 11).
In this example, in vitro invasion of cancer cells into substrates is inhibited with non-peptide mimetics in comparison with chemically modified peptides (on a molar basis). The peptides of Example 14 (i.e. peptides chemically modified with protecting groups and peptides having protecting groups as well as the modification wherein an L-amino acid has been replaced with the D-isomer) were compared with the non-peptide mimetics DL-N-Acetylhomocysteinethiolactone, Thiobutyrolactone, and Mercaptopropionic acid, in order to investigate the structure activity relationship for invasion inhibition by interaction with the PHSRN-binding pocket of the α5β1 fibronectin receptor (Figure 12)

[2] = target: α5β1 integrin fibronectin receptor (human) (UniProt P08648); experiment: cell-based or functional assay
[3] = target: α5β1 integrin fibronectin receptor (human) (UniProt P08648); experiment: cell-based or functional assay; remark: listed apart in the source
[4] = invasion inhibition, molar basis (Figure 12)

UniProt P08648, sequence (P08648 42-1049, chain 1 of 2): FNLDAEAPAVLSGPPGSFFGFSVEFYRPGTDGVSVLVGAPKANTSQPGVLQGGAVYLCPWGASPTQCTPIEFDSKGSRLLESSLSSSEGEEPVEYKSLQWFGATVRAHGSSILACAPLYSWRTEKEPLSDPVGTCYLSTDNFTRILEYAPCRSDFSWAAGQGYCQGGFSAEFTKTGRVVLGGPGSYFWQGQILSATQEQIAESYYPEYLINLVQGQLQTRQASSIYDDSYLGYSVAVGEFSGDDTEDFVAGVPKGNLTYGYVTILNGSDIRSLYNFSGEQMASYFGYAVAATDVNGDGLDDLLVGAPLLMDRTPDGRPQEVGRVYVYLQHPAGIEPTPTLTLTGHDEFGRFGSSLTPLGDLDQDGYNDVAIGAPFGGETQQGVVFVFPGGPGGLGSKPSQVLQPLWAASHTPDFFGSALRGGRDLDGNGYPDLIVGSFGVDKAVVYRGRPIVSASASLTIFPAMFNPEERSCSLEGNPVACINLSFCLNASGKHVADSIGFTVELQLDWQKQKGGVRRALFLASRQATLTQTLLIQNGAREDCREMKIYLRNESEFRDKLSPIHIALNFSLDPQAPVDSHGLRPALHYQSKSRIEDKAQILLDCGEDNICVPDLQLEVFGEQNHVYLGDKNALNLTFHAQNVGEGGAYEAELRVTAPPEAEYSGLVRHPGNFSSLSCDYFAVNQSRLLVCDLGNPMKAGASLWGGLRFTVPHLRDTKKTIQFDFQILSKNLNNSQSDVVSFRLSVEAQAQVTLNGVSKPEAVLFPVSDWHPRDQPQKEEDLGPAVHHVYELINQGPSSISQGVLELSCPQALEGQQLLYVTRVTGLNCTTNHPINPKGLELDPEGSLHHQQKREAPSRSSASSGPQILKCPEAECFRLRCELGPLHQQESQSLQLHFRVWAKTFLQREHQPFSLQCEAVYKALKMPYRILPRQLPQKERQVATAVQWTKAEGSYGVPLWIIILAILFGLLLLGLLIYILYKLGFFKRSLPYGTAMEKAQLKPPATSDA
UniProt P08648, sequence (P05556 21-798, chain 2 of 2, further chain): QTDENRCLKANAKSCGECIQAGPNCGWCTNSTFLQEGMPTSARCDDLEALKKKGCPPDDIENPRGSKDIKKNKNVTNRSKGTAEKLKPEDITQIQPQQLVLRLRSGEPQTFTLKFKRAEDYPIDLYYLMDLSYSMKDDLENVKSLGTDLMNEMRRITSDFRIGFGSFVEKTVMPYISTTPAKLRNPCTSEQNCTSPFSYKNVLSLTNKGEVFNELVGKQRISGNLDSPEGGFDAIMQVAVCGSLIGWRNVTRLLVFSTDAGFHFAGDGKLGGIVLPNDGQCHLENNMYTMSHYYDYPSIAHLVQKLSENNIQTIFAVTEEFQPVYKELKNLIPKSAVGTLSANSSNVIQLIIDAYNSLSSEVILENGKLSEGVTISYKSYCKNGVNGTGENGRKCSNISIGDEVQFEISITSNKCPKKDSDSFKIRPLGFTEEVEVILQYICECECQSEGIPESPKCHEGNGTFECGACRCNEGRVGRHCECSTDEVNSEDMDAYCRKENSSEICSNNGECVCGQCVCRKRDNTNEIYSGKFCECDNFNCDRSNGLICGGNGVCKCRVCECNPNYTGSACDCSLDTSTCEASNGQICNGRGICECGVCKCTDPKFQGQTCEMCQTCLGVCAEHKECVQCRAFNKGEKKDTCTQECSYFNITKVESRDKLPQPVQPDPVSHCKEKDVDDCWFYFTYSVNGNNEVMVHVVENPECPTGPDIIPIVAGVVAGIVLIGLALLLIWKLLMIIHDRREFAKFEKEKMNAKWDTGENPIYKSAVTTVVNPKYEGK

Compound | IC100 [1] | less active than blocked PHSCN [1, 4] | less active than the unblocked PHSCN peptide [1, 4] | concentration giving complete inhibition of invasion of metastatic DU145 cells into SU-ECM in medium with 10% serum [2] | concentration giving complete inhibition of invasion of metastatic DU145 cells into SU-ECM in medium with 10% serum [3] | further results
O=C1CCCS1 [Thiobutyrolactone] | 30 µM | about 500 fold | 15 times | – | – | less active than N-acetylhomocysteinethiolactone [1, 4]: 50 fold
O=C(O)CCS [Mercaptopropionic acid] | – | – | 1500 times | – | – | reduction of DU145 invasion ([1]; at any of the concentrations tested, medium with 10% serum (Figure 12)): ≤ 20%; less active in invasion inhibition than thiobutyrolactone [1, 4]: at least 100 times
Ac-PHSCN-NH2 [Ac-PHSCN-NH2] | – | – | – | – | – | concentration that completely inhibits invasion ([1]; medium with 10% serum (Example 14, Figure 11)): approximately 1.3 ng/ml; concentration that completely (fully) inhibits invasion ([1]; medium with 10% serum (Example 15, Figure 12)): approximately 0.06 µM
Ac-PHSCN-NH2 peptide | – | – | – | 0.06 µM | 1.3 ng/mL | –
PHSCN peptide | – | – | – | 2 µM | 3 ng/mL | –
CC(=O)NC1CCSC1=O (racemic) [DL-N-Acetylhomocysteinethiolactone] | 0.6 µM | about 10 fold | – | – | – | more active than the unblocked PHSCN peptide [1, 4]: about 3 fold
